From patent US20250011326A1, “FUSED HETEROCYCLIC DERIVATIVES AND THEIR USE IN THE TREATMENT OF HBV INFECTION” (Janssen Sciences Ireland Unlimited Company, priority 2021, published 2025) come the findings set out here.

Data set [1] in a line: Cytotoxicity, cell viability by ATPlite Luminescence Assay. The format is cell-based, human. The conditions noted are these: human, HepG2 or HepG2 117 cells, 3-days incubation (unless marked *), mean value. How it is done: (§1) Cytotoxicity of the compounds was tested using HepG2 or HepG2 117 cells, incubated for 3 or 4 days in the presence of compounds. The viability of the cells was assessed using the PERKIN ELMER ATPlite Luminescence Assay System.”
A general note: In ATP-based viability assays light output follows the ATP content of the culture.

The test system of data set [2] is HBV. The data set can be described thus: Anti-HBV activity: intracellular HBV DNA by real-time PCR in HepG2.117 cell line. It counts as cell-based, Hepatitis B virus. The conditions noted are these: HepG2.117 cells, HBV replication induced (absence of doxycycline), 3 days of treatment, mean value. The protocol:
The anti HBV activity was measured using the HepG2.117 cell line, a stable, inducibly HBV producing cell line, which replicates HBV in the absence of doxycycline (Tet-off system). The HepG2 cell line is available from ATCCR under number HB-8065 Transfection of the HepG2 cell line can be as described in Sun and Nassal 2006 Journal of Hepatology 45 (2006) 636-645 “Stable HepG2- and Huh7-based human hepatoma cell lines for efficient regulated expression of infectious hepatitis B virus”.
For the antiviral assay, HBV replication was induced, followed by a treatment with serially diluted compound in 96-well plates. After 3 days of treatment, the antiviral activity was determined by quantification of intracellular HBV DINA using real-time PCR and an HBV specific primer set and probe.

Data set [3] deals with HepG2 or HepG2 117 cells. The data set can be described thus: Cytotoxicity, cell viability by ATPlite Luminescence Assay. It counts as cell-based, human. The note with it: 3-days incubation (unless marked *), mean value. How it is done: as §1
The mark [4] stands for this setting: Hepatitis B virus, HepG2.117, 72 h.

Some results are limits rather than exact numbers.

Regarding `CC(=O)NC[C@@H]1Cn2nc3c(c2C(=O)N1[C@@H](C)c1ccc(OC(F)F)cc1)CN(C(=O)c1ccc(Cl)c(C#N)c1)[C@H](C)C3` (single isomer, unassigned) [Compound 1B, N-(((3R,8R*)-2-(4-chloro-3-cyanobenzoyl)-9-((S*)-1-(4-(difluoromethoxy)phenyl)ethyl)-3-methyl-10-oxo-1,2,3,4,7,8,9,10-octahydropyrido[4′,3′:3,4]pyrazolo[1,5-a]pyrazin-8-yl)methyl)acetamide], the half-maximal cytotoxic concentration (CC50) at 3 days in data set [1] was over 50 µM. In data set [2], this compound had an EC50 of 1.48 µM.
In the case of `CC(=O)NC[C@@H]1Cn2nc3c(c2C(=O)N1[C@@H](C)c1ccc(OC(F)F)cc1)CN(C(=O)c1ccc(Cl)c(C#N)c1)[C@H](C)C3` (single isomer, unassigned) [Compound 1D, N-(((3R,8S*)-2-(4-chloro-cyanobenzoyl)-9-((S*)-1-(4-(difluoromethoxy)phenyl)ethyl)-3-methyl-10-oxo-1,2,3,4,7,8,9,10-octahydropyrido[4′,3′:3,4]pyrazolo[1,5-a]pyrazin-8-yl)methyl)acetamide], the CC50 in data set [3] is over 50 µM. In data set [2], this compound displayed a concentration for a half-maximal effect (EC50) of 0.491 µM.
`CNC(=O)[C@@H]1Cn2nc3c(c2C(=O)N1[C@@H](C)c1ccc(OC(F)F)cc1)CN(C(=O)c1ccc(Cl)c(C#N)c1)[C@H](C)C3` (single isomer, unassigned) [Compound 2B, (3R,8S*)-2-(4-chloro-3-cyanobenzoyl)-9-((S*)-1-(4-(difluoromethoxy)phenyl)ethyl)-N,3-dimethyl-10-oxo-1,2,3,4,7,8,9,10-octahydropyrido[4′,3′:3,1]pyrazolo[1,5-a]pyrazine-8-carboxamide]: in data set [1], the CC50 at 3 days is over 50 µM. Moreover, the EC50 in data set [2] (setting [4]) was 0.183 µM.
In turn, `CC1Cn2nc3c(c2C(=O)N1Cc1ccc(OC(F)F)cc1)CN(C(=O)c1ccc(Cl)c(Cl)c1)[C@H](C)C3` (single isomer, unassigned) [Compound 6A, (3R,8R*)-2-(3,4-dichlorobenzoyl)-9-(4-(difluoromethoxy)benzyl)-3,8-dimethyl-1,2,3,4,8,9-hexahydropyrido[4′,3′:3,4]pyrazolo[1,5-a]pyrazin-10(7H)-one] returned a 50% cytotoxic concentration (CC50) at 3 days in data set [1] of 4.5 µM. The compound also displayed an EC50 in data set [2] (setting [4]) of 0.032 µM.
`CC(c1ccc(OC(F)F)cc1)n1ncn2nc3c(c2c1=O)CN(C(=O)c1ccc(Cl)c(C(F)(F)F)c1)[C@H](C)C3` (single isomer, unassigned) [Compound 7A, (R)-9-(4-Chloro-3-(trifluoromethyl)benzoyl)-2-((R*)-1-(4-(difluoromethoxy)phenyl)ethyl)-8-methyl-7,8,9,10-tetrahydropyrido[4′,3′:3,4]pyrazolo[1,5-d][1,2,4]triazin-1(2H)-one] yielded a 50% cytotoxic concentration (CC50) at 3 days in data set [1] of 46.3 µM. Besides, the 50% effective concentration (EC50) in data set [2] (setting [4]) turned out to be 0.194 µM.
Taken in the same sequence, the figures for `CC(c1ccc(OC(F)F)cc1)n1ncn2nc3c(c2c1=O)CN(C(=O)c1ccc(Cl)c(Cl)c1)[C@H](C)C3` (single isomer, unassigned) [Compound 8A, (R)-9-(3,4-Dichlorobenzoyl)-2-((R*)-1-(4-(difluoromethoxy)phenyl)ethyl)-8-methyl-7,8,9,10-tetrahydropyrido[4′,3′:3,4]pyrazolo[1,5-d][1,2,4]triazin-1(2H)-one] were over 50 µM and 0.067 µM.
Taken in the same sequence, the figures for `CC(c1ccc(OC(F)F)cc1)n1ncn2nc3c(c2c1=O)CN(C(=O)c1ccc(Cl)c(C#N)c1)[C@H](C)C3` (single isomer, unassigned) [Compound 9B, 2-chloro-5-((R)-2-((S*)-1-(4-(difluoromethoxy)phenyl)ethyl)-8-methyl-1-oxo-1,2,7,8,9,10-hexahydropyrido[4′,3′:3,4]pyrazolo[1,5-d][1,2,4]triazine-9-carbonyl)benzonitrile] were over 50 µM and 0.13 µM.
In data set [1], `CC(c1ccc(OC(F)F)cc1)n1ccn2nc3c(c2c1=O)CN(C(=O)c1ccc(Cl)c(Cl)c1)[C@H](C)C3` (single isomer, unassigned) [Compound 10A, (R)-2-(3,4-dichlorobenzoyl)-9-((R*)-1-(4-(difluoromethoxy)phenyl)ethyl)-3-methyl-1,2,3,4-tetrahydropyrido[4′,3′:3,4]pyrazolo[1,5-a]pyrazin-10(9H)-one] displayed a CC50 at 3 days of 32.8 µM. This compound also displayed an EC50 in data set [2] of 0.072 µM.
Turning to `CC(c1ccc(OC(F)F)cc1)n1ccn2nc3c(c2c1=O)CN(C(=O)c1ccc(Cl)c(Cl)c1)[C@H](C)C3` (single isomer, unassigned) [Compound 10B, (R)-2-(3,4-dichlorobenzoyl)-9-((S*)-1-(4-(difluoromethoxy)phenyl)ethyl)-3-methyl-1,2,3,4-tetrahydropyrido[4′,3′:3,4]pyrazolo[1,5-a]pyrazin-10(9H)-one], the CC50 in data set [3] is over 50 µM. Further, it took 0.294 µM to reach a half-maximal effect in data set [2] (EC50).
As to `CNC(=O)[C@H]1CN([C@@H](C)c2ccc(OC(F)F)cc2)C(=O)c2c3c(nn21)C[C@@H](C)N(C(=O)c1ccc(Cl)c(C#N)c1)C3` (single isomer, unassigned) [Compound 11B, (3R,7R*)-2-(4-chloro-3-cyanobenzoyl-9-((S*)-1-(4-(difluoromethoxy)phenyl)ethyl)-N,3-dimethyl-10-oxo-1,2,3,4,7,8,9,10-octahydropyrido[4′,3′:3,4]pyrazolo[1,5-a]pyrazine-7-carboxamide], the CC50 at 3 days in data set [1] is over 50 µM. This compound yielded an EC50 in data set [2] (setting [4]) of 0.058 µM.
Taken in the same sequence, the figures for `CC(=O)NC[C@@H]1CN([C@@H](C)c2ccc(OC(F)F)cc2)C(=O)c2c3c(nn21)C[C@@H](C)N(C(=O)c1ccc(Cl)c(C#N)c1)C3` (single isomer, unassigned) [Compound 13B, N-(((3R,7R*)-2-(4-chloro-3-cyanobenzoyl)-9(S*)-1-(4-(difluoromethoxy)phenyl)ethyl)-3-methyl-10-oxo-1,2,3,4,7,8,9,10-octahydropyrido[4′,3′:3,4]pyrazolo[1,5-a]pyrazin-7-yl)methyl)acetamide] were over 50 µM and 0.167 µM.
In data set [1], `CC(=O)NC[C@H]1CN([C@@H](C)c2ccc(OC(F)F)cc2)C(=O)c2c3c(nn21)C[C@@H](C)N(C(=O)c1ccc(Cl)c(C#N)c1)C3` (single isomer, unassigned) [Compound 13D, N-(((3R,7S*)-2-(4-chloro-3-cyanobenzoyl)-9-((S*)-1-(4-(difluoromethoxy)phenyl)ethyl)-3-methyl-10-oxo-1,2,3,4,7,8,9,10-octahydropyrido[4′,3′:3,4]pyrazolo[1,5-a]pyrazin-7-yl)methyl)acetamide] displayed a CC50 at 3 days of over 50 µM. Besides, in data set [2] (setting [4]), the midpoint of the response, the EC50, lay at 0.344 µM.
`CC(c1ccc(OC(F)F)cc1)n1ncn2nc3c(c2c1=O)CN(C(=O)c1ccc(Cl)c(C(F)(F)F)c1)[C@H](C)C3` (stereo in doubt) [Compound 7B, (R)-9-(4-chloro-3-(trifluoromethyl)benzoyl)-2-((S*)-1-(4-(difluoromethoxy)phenyl)ethyl)methyl-7,8,9,10-tetrahydropyrido[4′,3′:3,4]pyrazolo[1,5-d][1,2,4]triazin-1(2H)-one] showed a CC50 in data set [3] of over 50 µM. The concentration giving a half-maximal response (EC50) in data set [2] turned out to be 0.262 µM.
Taken in the same sequence, the figures for `CC(c1ccc(OC(F)F)cc1)n1ncn2nc3c(c2c1=O)CN(C(=O)c1ccc(Cl)c(C#N)c1)[C@H](C)C3` (stereo in doubt) [Compound 9A, 2-Chloro-S—((R)-2-((R*)-1-(4-(difluoromethoxy)phenyl)ethyl)-8-methyl-1-oxo-1,2,7,8,9,10-hexahydropyrido[4′,3′:3,4]pyrazolo[1,5-d][1,2,4]triazine-9-carbonyl)benzonitrile] were over 50 µM and 0.553 µM.
Compound `CNC(=O)[C@H]1Cn2nc3c(c2C(=O)N1Cc1ccc(OC(F)F)cc1)CN(C(=O)c1ccc(Cl)c(C#N)c1)[C@H](C)C3` [Compound 3A] registered a half-maximal cytotoxic concentration (CC50) at 3 days in data set [1] of over 50 µM. Further, the EC50 in data set [2] (setting [4]) stood at 0.427 µM.
Taken in the same sequence, the figures for `CC(c1ccc(OC(F)F)cc1)N1C(=O)c2c3c(nn2CC1CO)C[C@@H](C)N(C(=O)c1ccc(Cl)c(C#N)c1)C3` (stereo partly drawn) [Compound 4, 2-Chloro-5-((3R)-9-(1-(4-(difluoromethoxy)phenyl)ethyl)-8-(hydroxymethyl)-3-methyl-10-oxo-1,2,3,4,7,8,9,10-octahydropyrido[4′,3′:3,4]pyrazolo[1,5-a]pyrazine-2-carboaryl)benzonitrile] were 25 µM and 0.227 µM.
`CNC(=O)CC[C@H]1Cn2nc3c(c2C(=O)N1Cc1ccc(OC(F)F)cc1)CN(C(=O)c1ccc(Cl)c(C#N)c1)[C@H](C)C3` [Compound 5, 3-((3R,8S)-2-(4-chloro-3-cyanobenzoyl)-9-(4-(difluoromethoxy)benzyl)-3-methyl-10-oxo-1,2,3,4,7,8,9,10-octahydropyrido[4′3′:3,4]pyrazolo[1,5-a]pyrazin-8-yl)-N-methylpropanamide] had a CC50 at 3 days in data set [1] of over 50 µM. Moreover, in data set [2] (setting [4]), it took 0.414 µM to reach a half-maximal effect (EC50).
In the same order, the values of `CC(c1ccc(OC(F)F)cc1)N1CC(CO)n2nc3c(c2C1=O)CN(C(=O)c1ccc(Cl)c(C#N)c1)[C@H](C)C3` (stereo partly drawn) [Compound 12, 2-Chloro-5-((3R)-9-(1-(4-(difluoromethoxy)phenyl)ethyl)-7-(hydroxymethyl)-3-methyl-10-oxo-1,2,3,4,7,8,9,10-octahydropyrido[4′,3′:3,4]pyrazolo[1,5-a]pyrazine-2-carbonyl)benzonitrile] are 24.9 µM and 0.068 µM.

A word on the CC50: it is the concentration that lowers cell viability or growth by half. A lower CC50 goes with harm at low concentration. Broadly, the EC50 is the concentration needed to bring the measured effect to its halfway point. Read a high EC50 as weaker potency.
